The term IC50 denotes the point on the concentration scale where inhibition reaches its midpoint.

This passage reports IC50 and tolerability results from patent US10765680B2, “Combination of a MCL-1 inhibitor and a taxane compound, uses and pharmaceutical compositions thereof” (priority 2017, dated 2020).

For data set [1], the system named is HCC1500 breast cancer cell line. Description: 72 hours CellTiter-Glo proliferation assay, HCC1500. It is filed as cell-based. The note with it: single agent, read-out: Abs IC50. On the procedure:
(§1) Compounds were dissolved in 100% DMSO (Sigma, Catalog # D2438-50 ML) at a stock concentration of 10 mM and stored at −20° C. until use. Compounds were arrayed in 2 ml deep 96-well plates (Greiner bio-one, catalog number 780271) serially diluted 3-fold. Compound 1 was used over a concentration range of 0.0-10.0 μM. Paclitaxel was used over a concentration range of 0.0-1.0 μM in breast cancer cells and 0.0-2.0 μM range in lung cancer cells.
(§2) All cell lines were purchased from the American Type Culture Collection and cultured according to vendor recommendations. […] All cell lines were determined to be free of mycoplasma contamination by a PCR detection assay performed at Idexx Radil (Columbia, Mo., USA) and authenticated by SNP analysis. […] Cells were expanded to T-75 flasks and assessed for viability using a Beckman-Coulter ViCell counter prior to plating. […]
(§3) Cell proliferation was measured in 72 hours CellTiter-Glo™ (CTG) assays and all results shown are the result of at least triplicate measurements. […] After 72 hours of compound treatment the effects of compounds on cell proliferation was determined using the CellTiter-Glo™ Luminescent Cell Viability Assay (Promega, Catalog # G7573). This is a homogeneous method to determine the number of viable cells in culture based on quantitation of the ATP present, which signals the presence of metabolically active cells. […]
Background: Cellular ATP, detected with luciferase, serves as a proxy for viable cell number.

Data set [2] deals with HCC1954 breast cancer cell line. Description: 72 hours CellTiter-Glo proliferation assay, HCC1954. It is filed as cell-based. The note with it: single agent, read-out: Abs IC50. On the procedure: as §1, §2, §3
The subject of data set [3] is MCF7 breast cancer cell line. Description: 72 hours CellTiter-Glo proliferation assay, MCF7. It is filed as cell-based. The note with it: single agent, read-out: Abs IC50. How it is done: as §1, §2, §3
Data set [4] concerns MDA-MB-436 breast cancer cell line. As to the kind of experiment: 72 hours CellTiter-Glo proliferation assay, MDA-MB-436. It is filed as cell-based. As to conditions: single agent, read-out: Abs IC50. How it is done: as §1, §2, §3
Data set [5] has as its system MDA-MB-453 breast cancer cell line. As to the kind of experiment: 72 hours CellTiter-Glo proliferation assay, MDA-MB-453. It is filed as cell-based. The note with it: single agent, read-out: Abs IC50. On the procedure:
as §1, §2, §3

Data set [6] in a line: MDA-MB-231 breast xenograft model, tolerability and surviving animals. It is filed as in vivo, female nude rats. The note with it: Compound 1 50 mg/kg dosed 0.5 h or 16 h after vehicle for paclitaxel. How it is done:
This study evaluated the antitumor activity and tolerability of Compound 1 in combination with paclitaxel in the triple negative breast cancer (TNBC) model, MDA-MB-231, in female NTac:NIH-Whn nude rats (Taconic).
Compound 1 (free base) and paclitaxel (Sandoz) was used in these studies. Paclitaxel was diluted as per manufacturer's instruction with sterile 5% (w/v) glucose solution to 1.5 mg/ml to administer 7.5 mg/kg in 5 ml/kg dose volume [final ethanol and Cremophor EL concentration was 10 and 15%, respectively in 5% (w/v) glucose solution]. Compound 1 was formulated in a liposomal formulation (Novartis) at 5 mg/ml to administer 50 mg/kg dose in 10 ml/kg dose volume.
MDA-MB-231, a triple negative breast cancer cell line, was obtained from ATCC cell bank. […] Tumor growth was monitored regularly post cell inoculation and animals were randomised into treatment groups (n=7-8) with a mean tumor volume of about 400 mm^3. […]
The vehicle for paclitaxel or paclitaxel was administered once a week (QW) as a slow bolus dose via a caudal vein 0.5 h or 16 h before the vehicle for Compound 1 or Compound 1 itself in liposomal formulation and these were administered by iv infusion over 15 minutes in a caudal vein. […] Tumor volumes were measured using calipers 2-3 times per week. Tumor size, in mm^3, was calculated from: (L×W^2×π/6), where W=width and L=length of the tumor. […]

`COc1ccccc1-c1nccc(COc2ccccc2C[C@@H](Oc2ncnc3sc(-c4ccc(F)cc4)c(-c4ccc(OCCN5CCN(C)CC5)c(Cl)c4C)c23)C(=O)O)n1` [Compound 1, (2R)-2-{[(5Sa)-5-{3-chloro-2-methyl-4-[2-(4-methylpiperazin-1-yl)ethoxy]phenyl}-6-(4-fluorophenyl)thieno[2,3-d]pyrimidin-4-yl]oxy}-3-(2-{[2-(2-methoxyphenyl)pyrimidin-4-yl]methoxy}phenyl)propanoic acid]: the IC50 in data set [1] is 258 nM; in data set [2], 158 nM; in data set [3] it was 1290 nM; in data set [4] it was > 10000 nM; in data set [5] it was > 10000 nM. In data set [6], the tolerability entry is on record as “well tolerated”.
